The record followed here is patent US9834537B2, “Compounds as chloride channel blocking agent” (Korea Institute of Science and Technology, priority 2013, dated 2017).

The assay deals with calcium ion-activated chloride channel (Xenopus laevis, UniProt B5SVV6). Description: Patch clamp method: two-electrode voltage clamp recording on Xenopus laevis eggs, calcium-dependent chloride channel blocking activity. The format is cell-based. As for the experimental part: Meanwhile, with regard to the novel compound represented by formula 1 according to the present invention, calcium-dependent chloride channel blocking activity was assessed by a patch clamp method according to the following experimental examples. Eggs of African Xenopus laevis were collected through surgical operation, immersed in a Barth's solution [88 mM NaCl, 1 mM KCl, 2.4 mM NaHCO3, 10 mM HEPES, 0.82 mM MgSO4, 0.33 mM Ca(NO3)2, 0.91 mM CaCl2 (all of which were purchased from Sigma Co.); 10 units/mL peniciline, and streptomycin (purchased from Gibco Co.)], and cultured in an incubator at a constant temperature of 18° C. Such prepared eggs were treated using 10 μM ionomycin (Sigma) for 30 minutes. A recording solution (96 mM NaCl, 2 mM KCl, 10 mM HEPES, 3 mM NaOH, 2 mM MgCl2, 0.5 mM EGTA, Sigma) was prepared and the eggs treated with ionomycin were rinsed using the prepared recording solution. Further, the eggs, after treating with 1 μM thapsigargin (Sigma) for 2 hours, were rinsed again using the recording solution to prepare eggs for recording. Next, an intracellular solution was prepared by adding 0.5 mM EGTA and 1 μM chelerythrine (Sigma) to 1 M KCl solution, then, charged in a glass micro-electrode. One of the prepared eggs was placed on a chamber and two micro-electrodes were stuck into both sides of the egg while dripping the recording solution over the egg. According to a protocol corresponding to purposes for experiments, two-electrode voltage clamp recording was executed to measure an electrical current.
A general note: Patch clamp records ionic current or voltage across a cell membrane.

Setting [1] is: calcium ion-activated chloride channel, Xenopus laevis eggs, two-electrode voltage clamp.
Where [2] appears, read: Table 2 upper part, naphthyl compounds of formula 1b (scaffold drawing 37; * = position of naphthyl attachment).

calcium ion-activated chloride channel, sequence (B5SVV6 entry or part of it): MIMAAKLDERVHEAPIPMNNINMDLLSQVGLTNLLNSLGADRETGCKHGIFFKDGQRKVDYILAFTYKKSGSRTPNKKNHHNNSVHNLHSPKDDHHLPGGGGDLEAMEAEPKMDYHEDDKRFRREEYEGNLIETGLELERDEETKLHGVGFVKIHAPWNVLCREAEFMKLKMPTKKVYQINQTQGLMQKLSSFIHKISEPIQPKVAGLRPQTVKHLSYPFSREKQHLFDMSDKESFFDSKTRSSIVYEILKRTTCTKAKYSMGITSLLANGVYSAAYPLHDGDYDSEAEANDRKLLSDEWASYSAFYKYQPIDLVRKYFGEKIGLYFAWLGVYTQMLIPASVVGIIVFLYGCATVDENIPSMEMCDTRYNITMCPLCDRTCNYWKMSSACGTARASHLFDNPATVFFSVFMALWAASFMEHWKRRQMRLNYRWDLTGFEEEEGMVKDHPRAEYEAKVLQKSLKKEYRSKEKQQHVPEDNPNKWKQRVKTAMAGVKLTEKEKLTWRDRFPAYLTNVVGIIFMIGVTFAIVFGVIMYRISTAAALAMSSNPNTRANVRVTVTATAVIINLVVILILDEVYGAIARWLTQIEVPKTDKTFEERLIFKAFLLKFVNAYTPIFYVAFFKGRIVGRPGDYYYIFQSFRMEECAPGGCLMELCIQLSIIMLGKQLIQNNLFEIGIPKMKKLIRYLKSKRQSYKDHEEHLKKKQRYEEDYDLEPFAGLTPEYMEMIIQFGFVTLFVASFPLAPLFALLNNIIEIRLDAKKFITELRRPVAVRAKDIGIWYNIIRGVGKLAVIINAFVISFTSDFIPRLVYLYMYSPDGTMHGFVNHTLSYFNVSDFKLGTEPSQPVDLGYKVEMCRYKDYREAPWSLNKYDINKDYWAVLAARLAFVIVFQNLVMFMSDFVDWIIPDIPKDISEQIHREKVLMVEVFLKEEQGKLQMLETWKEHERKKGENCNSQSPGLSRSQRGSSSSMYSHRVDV

Consider `O=C(O)c1cccc([N+](=O)[O-])c1Nc1ccc(Cl)c2ccccc12` [Compound No. 29, N-((4-chloro)naphthyl)-3-nitroanthranilic acid], for which the IC50 under setting [1] was determined as 16.6 µM. The same measure, in the same setting: the value for `O=C(O)c1ccc([N+](=O)[O-])cc1Nc1cccc2ccccc12` [Compound No. 31, N-naphthyl-4-nitroanthranilic acid] was 8.5 µM. As for `O=C(O)c1ccc([N+](=O)[O-])cc1Nc1ccc(Cl)c2ccccc12` [Compound No. 33, N-((4-chloro)naphthyl)-4-nitroanthranilic acid], the concentration for half-maximal inhibition (IC50) reads like this: under setting [2], 4.8 µM; under setting [1], 4.8 µM.

For `O=C(O)c1ccc([N+](=O)[O-])cc1Nc1ccc(Br)c2ccccc12` [Compound No. 34, N-((4-bromo)naphthyl)-4-nitroanthranilic acid], the half-maximal inhibitory concentration (IC50) under setting [1] stood at 10.1 µM. Same read-out and setting: the value for `O=C(O)c1ccc([N+](=O)[O-])cc1Nc1ccc([N+](=O)[O-])c2ccccc12` [Compound No. 35, N-((4-nitro)naphthyl)-4-nitroanthranilic acid] was 21.6 µM.

Consider `COc1ccc(Nc2cc([N+](=O)[O-])ccc2C(=O)O)c2ccccc12` [Compound No. 36, N-((4-methoxy)naphthyl)-4-nitroanthranilic acid], for which the IC50 reads like this: under setting [2], 15.2 µM; under setting [1], 15.2 µM. As to `O=C(O)c1cc([N+](=O)[O-])ccc1Nc1cccc2ccccc12` [Compound No. 40, N-naphthyl-5-nitroanthranilic acid], the IC50 under setting [2] turned out to be 5 µM and the half-inhibitory concentration (IC50) under setting [1] was determined as 5 µM. On to `O=C(O)c1cc([N+](=O)[O-])ccc1Nc1ccc(F)c2ccccc12` [Compound No. 41, N-((4-fluoro)naphthyl)-5-nitroanthranilic acid], for which, under setting [1], the IC50 stood at 3 µM.

Consider `O=C(O)c1cc([N+](=O)[O-])ccc1Nc1ccc(Cl)c2ccccc12` [Compound No. 42, N-((4-chloro)naphthyl)-5-nitroanthranilic acid], for which, under setting [1], the half-maximal inhibitory concentration (IC50) was found to be 8 µM. `O=C(O)c1cc([N+](=O)[O-])ccc1Nc1ccc(Br)c2ccccc12` [Compound No. 43, N-((4-bromo)naphthyl)-5-nitroanthranilic acid]: the 50% inhibitory concentration (IC50) was 1.5 µM under setting [2] and 1.5 µM under setting [1].

Turning to `O=C(O)c1cc([N+](=O)[O-])ccc1Nc1ccc(I)c2ccccc12` [Compound No. 44, N-((4-iodo)naphthyl)-5-nitroanthranilic acid], the IC50 under setting [1] was found to be 1.2 µM. Take `COc1ccc2ccccc2c1Nc1ccc([N+](=O)[O-])cc1C(=O)O` [Compound No. 45, N-((2-methoxy)naphthyl)-5-nitroanthranilic acid]: the concentration for half-maximal inhibition (IC50) is, setting by setting: under setting [2], 9.1 µM; under setting [1], 9.1 µM.

With `COc1cc(Nc2ccc([N+](=O)[O-])cc2C(=O)O)c2ccccc2c1` [Compound No. 46, N-((3-methoxy)naphthyl)-5-nitroanthranilic acid], the IC50 runs as follows: under setting [2], 1.8 µM; under setting [1], 1.8 µM. With `COc1ccc(Nc2ccc([N+](=O)[O-])cc2C(=O)O)c2ccccc12` [Compound No. 47, N-((4-methoxy)naphthyl)-5-nitroanthranilic acid], the IC50 reads like this: under setting [2], 2.27 µM; under setting [1], 2.27 µM. For `COc1cccc2c(Nc3ccc([N+](=O)[O-])cc3C(=O)O)cccc12` [Compound No. 48, N-((5-methoxy)naphthyl)-5-nitroanthranilic acid], the IC50 runs as follows: under setting [2], 9.2 µM; under setting [1], 9.2 µM. Regarding `COc1ccc2c(Nc3ccc([N+](=O)[O-])cc3C(=O)O)cccc2c1` [Compound No. 49, N-((6-methoxy)naphthyl)-5-nitroanthranilic acid], the IC50 runs as follows: under setting [2], 1.14 µM; under setting [1], 1.14 µM. For `COc1ccc2cccc(Nc3ccc([N+](=O)[O-])cc3C(=O)O)c2c1` [Compound No. 50, N-((7-methoxy)naphthyl)-5-nitroanthranilic acid], the IC50 was 3.4 µM under setting [2] and 3.4 µM under setting [1]. Consider `COc1cccc2cccc(Nc3ccc([N+](=O)[O-])cc3C(=O)O)c12` [Compound No. 51, N-((8-methoxy)naphthyl)-5-nitroanthranilic acid], for which the 50% inhibitory concentration (IC50) is, setting by setting: under setting [2], 8.6 µM; under setting [1], 8.6 µM. Consider `O=C(O)c1ccc(C(F)(F)F)cc1Nc1ccc(Cl)c2ccccc12` [Compound No. 66, N-((4-chloro)naphthyl)-4-trifluoromethylanthranilic acid], for which the IC50 under setting [1] was determined as 5.7 µM. With `O=C(O)c1c(Nc2ccc(Br)c3ccccc23)cccc1[N+](=O)[O-]` [Compound No. 70, N-((4-bromo)naphthyl)-6-nitroanthranilic acid], the concentration for half-maximal inhibition (IC50) under setting [1] amounted to 8.6 µM. Turning to `O=C(O)c1cc([N+](=O)[O-])ccc1Nc1ccccc1` [drawing 38 R1=5-NO2 R3=H, reference compound], under “Table 2 lower part, comparison phenyl anthranilic acid compounds of Korean Patent Registration No. 892591 (scaffold drawing 38)”, the IC50 is 42.5 µM. Take “N-naphthyl-3-nitroanthranilic acid [Compound No. 28]”: the IC50 under setting [1] amounted to 54 µM. On the same count and under the same terms, the value for “N-naphthyl-4-trifluoromethylanthranilic acid [Compound No. 65]” was 54 µM.

Broadly, the IC50 is the concentration at which inhibition is half-maximal.
